The source of these data is US20230107216A1, “PANTETHEINE DERIVATIVES AND USES THEREOF” (Comet Therapeutics, Inc., priority 2018, published 2023).

The subject of test [1] is Propionic Acidemia (PA) primary fibroblasts GM00371. The experiment in a line: Mitochondrial respiration, XFe96 Extracellular Flux Analyzer (OCR/ECAR), PA fibroblasts GM00371. In kind it is cell-based. The conditions noted are these: Homo sapiens, Fibroblast, assay condition C (10 mM glucose, 10% FBS), 50 μM, read-out: Increase in Maximal Respiratory Capacity AUC.
Test [2] deals with Methylmalonic Acidemia (MMA) primary fibroblasts Tsi 5224. The experiment in a line: Mitochondrial respiration, XFe96 Extracellular Flux Analyzer (OCR/ECAR), MMA fibroblasts Tsi 5224.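 For Increase in Maximal Respiratory Capacity AUC: relative to vehicle DMSO control.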 The class given is cell-based. The conditions noted are these: Homo sapiens, Fibroblast. Here is the method:
The effect of the compounds of the present disclosure on mitochondrial respiration was measured with a XFe96 Extracellular Flux Analyzer (Seahorse Bioscience, Agilent Technologies) and Oxygen consumption Rate (OCR) and Extracellular acidification rate (ECAR) determined.
Cell culture and treatments. Primary adherent fibroblasts were cultured in minimum essential medium (MEM) (Gibco, 25030081) supplemented with 2 mM L-Glutamine (Gibco, 25030081), 15% fetal bovine serum (FBS) (Gibco, 26400044) and 1% penicillin/streptomycin (Gibco, 5140122) at 37° C. and 5% CO2. Cells were collected for either passaging or experiment at ˜70-80% confluence. Cells were obtained by trypsinization and seeded at 20000 cells/well in cell culture microplates (Seahorse Bioscience, 101085-004) and allowed to adhere for 16 hours in culture media.
By profiling different primary cells and/or optimizing their culture media or environmental components one can select cell lines and/or conditions that are appropriate for the biological or disease model. In the present example, 24 hours prior to OCR and ECAR profiling, media was changed to Dulbecco's Modified Eagle Medium (DMEM, Agilent Seahorse 103575-100) with the appropriate supplements for the different primary cells (10 mM glucose, 2 mM L-glutamine, 1 mM pyruvate, 10% FBS; 1 mM glucose, 2 mM L-glutamine, 1 mM pyruvate, 10% FBS; 10 mM glucose, 10% FBS; 5 mM glucose 10% FBS; 1 mM glucose 10% FBS). Cells used in this example were: Propionic Acidemia (PA) (GM00371, GM03590 Coriell Institute for Medical Research, Tsi 6337, Tsi 4626, Tsi 3618 Trans-Hit Bio), Methylmalonic Acidemia (MMA) (GM01673, Coriell Institute for Medical Research, Tsi 5224 Trans-Hit Bio), Branched chain ketoacid dehydrogenase kinase (BCKDK) (GM00612, GM00649 Coriell Institute for Medical Research), Subnormal activation of pyruvate dehydrogenase complex (PDH) (GM01503 Coriell Institute for Medical Research), Very long-chain acyl-CoA dehydrogenase (VLCAD) (GM17475), Leigh Syndrome (LS) (GM03672, GM13411 Coriell Institute for Medical Research), Pyruvate Carboxylase Deficiency (PC) (GM00444 Coriell Institute for Medical Research), Glutaric Acidemia-I (GA) (GM10653), Friedreich's Ataxia (FXN) (GM04078 Coriell Institute for Medical Research, Huntington's disease (HD) (GM21756 Coriell Institute for Medical Research), Ornithine Transcarbamylase Deficiency (OTC) (GM12756 Coriell Institute for Medical Research), Kearns-Sayre Syndrome (KSS) (GM06225 Coriell Institute for Medical Research).
One hour before the assay, the cells were washed with freshly prepared unbuffered serum free-Seahorse XF Assay medium (Seahorse Bioscience, North America, USA, 103575-100) with the same supplements as for the previous 24 hour incubation.
After baseline measurements of OCR, cells were challenged with compounds of the present disclosure at different concentrations (10 to 50 μM) or vehicle (DMSO, 0.1%) and a post-compound baseline was recorded. OCR was measured after sequentially adding to each well 1 μg/ml oligomycin (inhibitor of ATP synthase Sigma-Aldrich, 753531), then maximal OCR was determined with carbonyl cyanide 4-(trifluoromethoxy) phenylhydrazone (FCCP, Sigma-Aldrich, C2920), (uncoupler of oxidative phosphorylation) and 0.5 μM of rotenone (Sigma-Aldrich, R8875) plus antimycin A (Sigma-Aldrich, A8674) (inhibitors of mitochondrial complex I and III) for determination of rotenone-antimycin insensitive respiration together with Hoechst for nuclear staining in situ when normalized to cell counts. After the analysis and nuclear staining, the XFp microplate was transferred to the Cytation 5, and the nuclear images were captured, the individual nuclei were identified and counted by BioTek Gen5 software. Data were expressed as pmol of O2 per minute and normalized by nuclear staining and baselined to pre-compound addition.
Assay conditions were as stated below.
Assay specifics on assay conditions are indicated below when readouts were normalized to cell counts. […]

For test [3], the system named is monocyte-derived M1 macrophages. Nature of the test: M1 differentiation assay (macrophage TNFα, IL6, IL10 ELISA, FACS). In kind it is cell-based, human. Here is the method:
Monocytes were isolated by positive isolation with CD14+ microbeads (Miltenyi, 130-050-201). Monocytes were 99% viable and were 96% purity as analyzed by FACS and CD14+ (BD, 563561). 100,000 monocytes along with compounds at the dose of 10 and 50 μM were allowed to differentiate to macrophages with 10 ng/ml GMCSF (R&D, 15-GM-050/CF) in RPMI complete media (Invitrogen, 22400089) with 15% FBS (Hyclone SV30087.03) and 1% Penicillin-Streptomycin (Gibco, 15140-122). On day 2 and 4 half the media was refreshed with fresh GM-CSF and compounds at 10 and 50 μM dose. On day 6 the macrophages were matured with GMCSF, IFNγ (R&D 285-IF-100/CF) and LPS (Sigma, L6143) in the presence of 10 μM and 50 μM of compounds. After 24h, supernatant was collected for the measurement of TNFα (DKW, 1117202) IL6 (DKW, 1110602), IL10 (DKW, 1110003) by ELISA. Macrophages were detached gently on ice with EDTA (Invitrogen, 15575-038) and analyzed by FACS (BD LSR Fortessa, 853492). Cells were stained for live/dead dye, surface and intracellular markers with fixation/permeabilization solution (BD, 554714) and ALIVE/DEAD™ Fixable Near-IR Dead Cell Stain Kit (BD, L34976), mouse anti human CD86 APC (BD, 555660), mouse anti-human CD163 PE (BD, 556018), mouse anti-human CD68 FITC (BD, 562117) or isotype controls anti-mouse IgG1 κ PE (BD, 559320) and anti-mouse IgG1 κ APC (BD, Anti mouse IgG1 κ APC (BD, 55571). Mature M1 macrophages were defined as CD86+CD68+CD163− and increase in TNFα, IL6, and decrease in IL-10.
For orientation: An ELISA detects its analyte on a solid surface through an enzyme-linked reagent.

The test system of test [4] is primary fibroblasts (healthy controls and PA, MMA, BCKDK, PDH, VLCAD, LS, PC, GA, VLCFA, KSS, FXN, HD). The experiment in a line: Measurement of ROS (H2DCFDA) in primary fibroblasts. In kind it is cell-based, human. The conditions noted are these: Homo sapiens, procedure Example 812, Assay Condition C. The procedure:
Primary adherent fibroblasts were cultured in minimum essential medium (MEM) (Gibco, 25030081) supplemented with 2 mM L-Glutamine (Gibco, 25030081), 15% fetal bovine serum (FBS) (Gibco, 26400044) and 1% penicillin/streptomycin (Gibco, 5140122) at 37° C. and 5% CO2. Cells were collected for either passaging or experiment at ˜70-80% confluence. Cells were obtained by trypsinization and seeded in cell culture microplates either white plate (Thermo Fisher Scientific, 152028) for luminescent measurement or black plate (Thermo Fisher Scientific, 165305) for fluorescent based read out for different assays listed below. Cells were obtained by trypsinization and […] were seeded and allowed to adhere for 16-18 hours to have confluency around 70-80% in the cell well with culture media. After 24 hours prior to measurements (37° C., 5% CO2) media was changed to Dulbecco's Modified Eagle Medium (DMEM, Agilent Seahorse cat #103575-100) with the appropriate supplements as stated below.
Primary fibroblasts assayed were Healthy controls (GM00041, GM05659, GM23974 Coriell Institute for Medical Research), Propionic Acidemia (PA) (GM00371, GM03590 Coriell Institute for Medical Research, Tsi 6337 Trans-Hit Bio), Methylmalonic Acidemia (MMA) (GM01673, Coriell Institute for Medical Research, Tsi 5224, Tsi 4290 Trans-Hit Bio), Branched chain ketoacid dehydrogenase kinase (BCKDK) (GM00612, GM00649 Coriell Institute for Medical Research), Subnormal activation of pyruvate dehydrogenase complex (PDH) (GM01503 Coriell Institute for Medical Research), Very long-chain acyl-CoA dehydrogenase (VLCAD) (GM17475), Leigh Syndrome (LS) (GM03672, GM13411 Coriell Institute for Medical Research), Pyruvate Carboxylase Deficiency (PC) (GM00444 Coriell Institute for Medical Research), Glutaric Acidemia-I (GA), Impaired VLCFA oxidation (VLCFA) (GM13262), Kearns-Sayre Syndrome (KSS) (GM06225 Coriell Institute for Medical Research), Friedreich's Ataxia (FXN), Huntington's disease (HD) (GM21756 Coriell Institute for Medical Research). Next, cells were treated with compounds (10 μM) and ROS H2DCFDA (22 μM) dye for 2 hours in PA, MMA lines and for 24h for the other fibroblast lines. Kinetic read was started immediately with a i3x plate reader (492/527 nm) for 60 minutes.
A total dead cell count was performed as described in Example 817 and only alive cells were used for analysis.

The mark [5] stands for this setting: MMA Tsi 5224, assay condition A (10 mM glucose, 2 mM L-glutamine, 1 mM pyruvate, 10% FBS), read-out: Increase in Maximal Respiratory Capacity AUC.
Where [6] appears, read: MMA Tsi 5224, assay condition D (1 mM glucose, 10% FBS), read-out: Increase in Maximal Respiratory Capacity AUC.
Setting [7] is: FXN GM04078, read-out: Decreased ROS by at least 10%.
The mark [8] stands for this setting: Fibroblast, PC GM00444, read-out: Decreased ROS by at least 10%.
The mark [9] stands for this setting: Fibroblast, PC GM00444, read-out: Decreased ROS by at least 30%.
The mark [10] stands for this setting: FXN GM04078, read-out: Decreased ROS by at least 30%.

Like-named read-outs stand apart in the source and are kept apart here.

As for `COC(=O)CCC(=O)CC(=O)SCCNC(=O)CCNC(=O)[C@H](O)C(C)(C)CO` [Compound 5, methyl 6-[(2-[3-[(2R)-2,4-dihydroxy-3,3-dimethylbutanamido]propanamido]ethyl)sulfanyl]-4,6-dioxo-hexanoate], in test [1], the activation at 50 µM is at least 10%.

Consider `COC(=O)C(=O)SCCNC(=O)CCNC(=O)[C@H](O)C(C)(C)CO` [Compound 30, Methyl (R)-2-((2-(3-(2,4-dihydroxy-3,3-dimethylbutanamido)propanamido)ethyl)thio)-2-oxoacetate], for which the activation at 10 µM in test [2] (setting [5]) is at least 10%.

Consider `COC(=O)CC(SCCNC(=O)CCNC(=O)[C@H](O)C(C)(C)COP(=O)(O)O)C(=O)OC` (stereo partly drawn) [Compound 86, dimethyl 2-((2-(3-((R)-2-hydroxy-3,3-dimethyl-4-(phosphonooxy)butanamido)propanamido)ethyl)thio)succinate], for which, in test [2] (setting [6]), the activation at 10 µM was at least 10%. Further, the “% Increase in Live Macrophage Cells” value in test [3] (10 uM) is at least 20%.

For `CC(O)CC(=O)CC(=O)CC(=O)SCCNC(=O)CCNC(=O)[C@H](O)C(C)(C)CO` (stereo partly drawn) [Compound 379], in test [4] (setting [7]), the inhibition at 10 µM was at least 10%.

Consider `CC(=O)C(C)C(=O)SCCNC(=O)CCNC(=O)[C@H](O)C(C)(C)CO` (stereo partly drawn) [Compound 396, (2R)-2,4-dihydroxy-3,3-dimethyl-N-[2-([2-[(2-methyl-3-oxobutanoyl)sulfanyl]ethyl]carbamoyl)ethyl]butanamide], for which the inhibition at 10 µM was at least 10% in test [4] (setting [8]) and at least 30% in test [4] (setting [9]). For the same molecule, in test [1], the activation at 50 µM was at least 10%.

For `COC(=O)[C@@H](N)CCC(=O)SCCNC(=O)CCNC(=O)[C@H](O)C(C)(C)CO` [Compound 412, methyl (2S)-2-amino-5-[(2-[3-[(2R)-2,4-dihydroxy-3,3-dimethylbutanamido]propanamido]ethyl)sulfanyl]-5-oxopentanoate], the inhibition at 10 µM in test [4] (setting [8]) is at least 10%; in test [4] (setting [9]) it was at least 30%; in test [4] (setting [7]), at least 10%; in test [4] (setting [10]), at least 30%.

For the molecule `COC(=O)[C@@H](N)CC(=O)SCCNC(=O)CCNC(=O)[C@H](O)C(C)(C)CO` [Compound 415], the activation at 10 µM in test [2] (MMA Tsi 5224, assay condition D (1 mM glucose, 10% FBS), read-out: Increase in Spare Capacity AUC) was at least 10%; in test [3] (Homo sapiens, Macrophage, 10 uM, read-out: % Increase in IL-10 Secretion) it was at least 30%. Further, in test [3] (50 uM), the “% decrease in Live Macrophage Cells” value is reported as at least 20%. The inhibition at 10 µM was at least 30% in test [3] (Homo sapiens, Macrophage, 10 uM, read-out: % decrease in Macrophage IL-6 Secretion) and at least 30% in test [3] (Homo sapiens, Macrophage, 10 uM, read-out: % decrease in Macrophage TNFα Secretion).

For `CC(C)(COC(=O)CCC(=O)O)[C@@H](O)C(=O)NCCC(=O)NCCSC(=O)CCC(=O)O` [Compound 1232], the inhibition at 10 µM was at least 10% in test [4] (Fibroblast, VLCFA GM13262, read-out: Decreased ROS by at least 10%); at least 30% in test [4] (Fibroblast, VLCFA GM13262, read-out: Decreased ROS by at least 30%); at least 10% in test [4] (setting [7]); at least 30% in test [4] (setting [10]). The activation at 10 µM in test [2] (setting [5]) and in test [2] (setting [6]) was at least 10% throughout.

With `CC(C)(C)OC(=O)N[C@@H](CC(=O)SCCNC(=O)CCNC(=O)[C@H](O)C(C)(C)CO)C(=O)OC(C)(C)C` [Compound 1318], the activation at 10 µM in test [2] (MMA Tsi 5224, assay condition B (1 mM glucose, 2 mM L-glutamine, 1 mM pyruvate, 10% FBS), read-out: Increase in Spare Capacity AUC) is at least 10%.
